Experimental data from patent US8133861B2, “Systemic purine administration: modulating axonal outgrowth of central nervous system neurons” (Alseres Pharmaceuticals, Inc., priority 2008, dated 2012).
“Also recorded” adds a separate entry of the source.

What was measured:
[1] = Brain (medial prefrontal cortex) microdialysate inosine during intravenous inosine infusion in rats; type: in vivo, rat; conditions: for CNS microdialysate inosine, percent of baseline / CNS microdialysate inosine, maximal increase (percent of baseline) / time to maximal increase of CNS microdialysate inosine: rat
Method: (§1) Two groups of three rats were dosed intravenously with a total of 4 different concentrations of inosine and vehicle, providing within-subjects comparisons. Rats were anesthetized and each was surgically implanted above the medial prefrontal cortex (A-P +3.2 and M-L +1.0 from Bregma, D-V −2.0 from the skull surface) with an intracerebral guide cannula that was replaced after three days by a microdialysis probe. The microdialyses probes were continually flushed with artificial cerebrospinal fluid (aCSF). Catheters were inserted into the jugular vein for inosine dosing and into the femoral artery for blood collection.
(§2) Inosine formulated in aqueous bicarbonate buffer (pH 9.2) was administered by intravenous infusion for up to two hours to two groups of rats (N=3 per group) and the microdialysis probes were perfused with aCSF at a rate of 0.015 mL/minute. One group received nominal dose rates of 0 (vehicle), 100, and 300 mg/kg/hour, and the other group received nominal dose rates of 0, 500, and 700 mg/kg/hour. Each nominal infusion rate was 10 mL/kg/hour and was separated by a 2-day washout period.
(§3) Blood samples and brain microdialysates were collected prior to each dose to establish basal concentrations of inosine, and for a period of 2 hrs after each dose to determine the percent of change (increase, decrease, or none) relative to basal. Microdialysate and blood plasma inosine concentrations were measured using an LC/MS/MS assay. The lower limit of quantitation of the rat plasma analysis and the CNS microdialysate was 0.25 ng/mL.
The subjects were naïve, male, Sprague-Dawley rats procured for this study from Harlan Spraque Dawley, Inc. (Indianapolis, Ind.). All rats selected for surgeries were quarantined, inspected and deemed acceptable for surgery by technicians qualified to make this assessment. Intracerebral guide cannulae were surgically implanted above the medial prefrontal cortex (mPFC). Rats were provided with a single dose of analgesic immediately after surgery to alleviate discomfort. Animals were inspected frequently during post-surgical recovery. After 3 days, the stylet in the intracerebral guide cannula was replaced with a microdialysis probe.
(§4) All study subjects were dosed via JVC catheters without handling. Prior to collecting pre-dose microdialysates, glass vials were loaded with the appropriate drug solution and connected to an Empis system. All rats received the doses of inosine they were intended to receive, as the infusion rate was ˜50 μl/min over the 2 hr dosing period. Two days later, all rats received the doses of inosine they were intended to receive, as the infusion rate was ˜50 μl/min over the 2 hr dosing period. All rats then received reduced doses of inosine, as the infusion rat was reduced to ˜40 μl/min over a 2 hr dosing period.
(§5) Samples of CNS microdialysate (0.03 mL) and arterial blood (0.15 mL) were taken for analysis of inosine concentration before infusion, and at specified times after the start of the infusions (20, 40, 60, 80, and 120 minutes).
Changes in inosine concentrations are expressed as percent of baseline in order to compare changes in inosine concentrations between treatments.
(§6) Changes in inosine concentrations (percent of baseline) were determined by dividing a particular post-dose inosine concentration (ng/mL) by the average of 4 pre-dose (baseline) inosine concentrations (ng/mL) and multiplying this value by 100%. Where plasma inosine (μg/mL) values appeared to reach steady-state by inspection of the last three time points, approximately values for clearance (L/kg/hour) were obtained from the relationship, clearance=infusion rate (mg/kg/hour)/steady-state concentration (mg/L). Mean percent of baseline changes in inosine concentrations were plotted for each treatment condition.

[2] = test system: central nervous system injury; assay: Treatment of a subject with central nervous system injury with inosine (Examples 5, 9, 13); type: in vivo
Method: A subject with central nervous system injury, is treated with an intravenous infusion of a solution of inosine (50 mM) and NaCl (0.15M) at a rate of 1 g/kg/day. […] A subject with central nervous system injury, is treated with a subcutaneous injection of a solution of inosine (50 mM) and NaCl (0.15M) at a rate of 1 g/kg/day. […] A subject with central nervous system injury is treated with intravenous infusion of a solution of inosine in a formulation of 0.1% sodium bicarbonate 70 mg/mL inosine, pH9.2. The 250 ml of the inosine formulation is infused over a two hour period. This procedure is repeated for 14 days.

stroke = assay: Treatment of a subject with an onset of stroke with inosine (Examples 6, 10); type: in vivo; conditions: inosine (50 mM) and NaCl (0.15M), 1 g/kg/day
Method: A subject with an onset of stroke, is treated with an intravenous infusion of a solution of inosine (50 mM) and NaCl (0.15M) at a rate of 1 g/kg/day. […] A subject with an onset of stroke, is treated with an subcutaneous injection of a solution of inosine (50 mM) and NaCl (0.15M) at a rate of 1 g/kg/day.

traumatic brain injury = assay: Treatment of a subject with a traumatic brain injury with inosine (Examples 8, 12); type: in vivo; conditions: inosine (50 mM) and NaCl (0.15M), 1 g/kg/day
Method: A subject with a traumatic brain injury, is treated with an intravenous infusion of a solution of inosine (50 mM) and NaCl (0.15M) at a rate of 1 g/kg/day. […] A subject with a traumatic brain injury, is treated with subcutaneous injection of a solution of inosine (50 mM) and NaCl (0.15M) at a rate of 1 g/kg/day.

[3] = Inosine prototype formulations: approximate potency, solubility and precipitation; type: physicochemical
Method: A number of inosine formulations were examined. Preparatory steps were as follows:
Inosine protype formulations were prepared by adding inosine drug substance to tare vials containing about 3-5 mL of aqueous solutions containing various pharmaceutical excipients in various concentrations. […] Common I.V. solutions such as phosphate buffered saline, normal saline and 5% dextrose in water are noted.
Megulmine is known to function both as a solubilizing and alkalizing agent, thus precluding the need for a buffering species which would unfavorably increase ionic strength in the formulation.
The composition of each formulation is provided in Table I. The pH of the formulation is reported for those formulations for which it was tested.

[4] = test system: rat hemisection model of spinal cord injury; assay: Rat dorsal hemisection model of spinal cord injury, BBB score of locomotor function; type: in vivo; conditions: approximately 2 mg/kg/hr
Method: This example considers intravenous infusion of inosine in rodent model of acute spinal cord injury. Rats were anesthetized and each was subjected to laminectomy in the thoracic region of the spinal cord, followed by dorsal hemisection of the spinal cord that included severance of the cortical spinal tract as a model of spinal cord injury (SCI). These rats were divided into two groups: one group was dosed by continuous intravenous infusion of 70 mg/mL (261 mM) inosine formulated in 0.1% sodium bicarbonate solution, pH approximately 9.2, for four weeks, and the other group was dosed by continuous intravenous infusion with 0.1% sodium bicarbonate vehicle control for four weeks. The infusion rate was 10 microliters per hour for inosine (approximately 2 mg/kg/hr) and vehicle dosing, and the infusions were started immediately after the SCI. In this regard it is noted that dosing at 2 mg/kg/hr represents a dose of about 48 mg/kg/day. In a 70 kg subject this is equivalent to about 3-4 g/day. Attention is drawn to daily doses from about 1 g/day to about 10 gm/day with attention being drawn to doses of about 2 g/day and about 5 day.
Rats were evaluated one day post-SCI to verify completeness of the lesion, and then weekly for functional status by assessment using the Basso-Beattie-Bresnahan (BBB) score of locomotor function as judged by hind-limb function and forelimb:hind-limb coordination. […]

[5] = Plasma inosine during 2-hr intravenous inosine infusion in rats (LC/MS/MS); type: in vivo, rat; conditions: for clearance: male, Sprague-Dawley, plasma, iv, infusion rate/steady-state concentration; for clearance / Plasma inosine concentration, maximal value / Steady-state mean plasma inosine level: rat
Method: as §1, §2, §3, §4, §5, §6

spinal cord injury = assay: Treatment of a subject with a spinal cord injury with inosine (Examples 7, 11); type: in vivo; conditions: inosine (50 mM) and NaCl (0.15M), 1 g/kg/day
Method: A subject with a spinal cord injury, is treated with an intravenous infusion of a solution of inosine (50 mM) and NaCl (0.15M) at a rate of 1 g/kg/day. […] A subject with a spinal cord injury, is treated with an subcutaneous injection of a solution of inosine (50 mM) and NaCl (0.15M) at a rate of 1 g/kg/day.

OC[C@H]1O[C@@H](n2cnc3c(O)ncnc32)[C@H](O)[C@@H]1O [inosine]
CNS microdialysate inosine, percent of baseline ([1]; i.v. infusion 100 mg/kg/hour): 113-146% | CNS microdialysate inosine, percent of baseline ([1]; i.v. infusion 300 mg/kg/hour): 96-116% | CNS microdialysate inosine, maximal increase (percent of baseline) ([1]; i.v. infusion 500 mg/kg/hour): 526-632% | time to maximal increase of CNS microdialysate inosine ([1]; i.v. infusion 500 mg/kg/hr): ≤ 45 min | CNS microdialysate inosine, maximal increase (percent of baseline) ([1]; i.v. infusion 700 mg/kg/hour): 574-653% | time to maximal increase of CNS microdialysate inosine ([1]; i.v. infusion 700 mg/kg/hr): ≤ 45 min | inosine levels above background ([1]; rats, i.v., 160-200 mg/kg/2 hrs): approximately 170% | inosine levels above background ([1]; rats, i.v., 480-600 mg/kg/2 hrs): approximately 170% | interstitial inosine as compared with the baseline/predose concentrations ([1]; rats, i.v., about 800 to 1000 mg/kg over about two hours (Formulation 80 diluted to 50 mg/mL)): approximately 500% | neurological deficit ([2]; Example 5: intravenous infusion, inosine (50 mM) and NaCl (0.15M), 1 g/kg/day): Amelioration of the neurological deficit | neurological deficit ([2]; Example 9: subcutaneous injection, inosine (50 mM) and NaCl (0.15M), 1 g/kg/day): Amelioration of the neurological deficit | neurological deficit ([2]; Example 13: intravenous infusion, 0.1% sodium bicarbonate 70 mg/mL inosine pH9.2, 250 ml over two hours, 14 days): Amelioration of the neurological deficit | neurological deficit (stroke; Example 6: intravenous infusion): Amelioration of the neurological deficit | neurological deficit (stroke; Example 10: subcutaneous injection): Amelioration of the neurological deficit | neurological deficit (traumatic brain injury; Example 8: intravenous infusion): Amelioration of the neurological deficit | neurological deficit (traumatic brain injury; Example 12: subcutaneous injection): Amelioration of the neurological deficit | inosine solubility ([3]; high pH environments): greatly enhanced | inosine solubility ([3]; higher concentrations of saline solutions): reduced solubility | functional outcome ([4]; continuous i.v. infusion, four weeks, P<0.01 weeks one and two, P<0.001 weeks three and four vs. vehicle): improves functional outcome; also recorded: continual or sustained improvement | BBB scores ([4]; three to four weeks post-SCI, continuous i.v. infusion 70 mg/mL, maximal score 21): near maximal possible values | clearance ([5]; i.v. infusion 300 mg/kg/hour): 218 mL/min/kg | clearance ([5]; i.v. infusion 500 mg/kg/hour): 257 mL/min/kg | Plasma inosine concentration, maximal value ([5]; i.v. infusion 100 mg/kg/hr): ≤ 7.2 µg/mL | Steady-state mean plasma inosine level ([5]; i.v. infusion 300 mg/kg/hour): 22.8 µg/mL | Plasma inosine concentration, maximal value ([5]; i.v. infusion 300 mg/kg/hr): ≤ 26 µg/mL | Steady-state mean plasma inosine level ([5]; i.v. infusion 500 mg/kg/hour): 32.4 µg/mL | Plasma inosine concentration, maximal value ([5]; i.v. infusion 500 mg/kg/hr): ≤ 45 µg/mL | Plasma inosine concentration, maximal value ([5]; i.v. infusion 700 mg/kg/hr): ≤ 146 µg/mL | inosine plasma levels ([5]; rats, i.v., about 800 to 1000 mg/kg over about two hours): significant rise | neurological deficit (spinal cord injury; Example 7: intravenous infusion): Amelioration of the neurological deficit | neurological deficit (spinal cord injury; Example 11: subcutaneous injection): Amelioration of the neurological deficit
